In paper PMC9332707, “Bio-Guided Isolation of SARS-CoV-2 Main Protease Inhibitors from Medicinal Plants: In Vitro Assay and Molecular Dynamics” (Plants, 2022):
pIC50: −log10 of the molar value. Converted amounts (≈) assume the structure as drawn. Like-named read-outs stand apart in the source and are kept apart here.

Columns and labels:
[1] = target: SARS-CoV-2 M^PRO (Severe acute respiratory syndrome coronavirus 2, UniProt P0DTD1); experiment: biochemical; format: biochemical
[2] = tested on: SARS-CoV-2 (hCoV-19/Egypt/NRC-03/2020); experiment: microbe, parasite or virus in culture; format: cell-based; conditions: for selectivity index CC50/IC50: CC50 (VERO-E6) / antiviral IC50
[3] = in vitro; conditions: African green monkey
[4] = tested on: SARS-CoV-2 infection; parameters: method as in PMID 33203926; conditions: read-out: IC50 against SARS-CoV-2 infection; cited from earlier work
[5] = parameters: method as in PMID 33203926; conditions: cited from earlier work
[6] = cited from earlier work
[7] = MTT cytotoxicity assay; conditions: African green monkey
[8] = tested on: M^PRO; conditions: read-out: reported bioassay IC50 (M^PRO); reported for the co-crystallized inhibitors (PDB 7CBT, 6W63); ref not given; cited from earlier work
[9] = parameters: method as in earlier work; conditions: dose of 5 mg/day to 2600 mg/day, without any toxic symptoms; cited from earlier work
[10] = parameters: method as in PMID 24924310; conditions: cited from earlier work
[11] = relative to GC376 standard inhibitor, read-out: IC50 on SARS-CoV-2 viral main protease
[12] = Severe acute respiratory syndrome coronavirus 2, Vero C1008, hCoV-19/Egypt/NRC-03/2020 on Vero-E6 cells, read-out: IC50 antiviral activity against SARS-CoV-2
[13] = Severe acute respiratory syndrome coronavirus 2, Vero C1008, read-out: IC50 antiviral activity against SARS-CoV-2

**Q.** Which “% Inhibition of SARS-CoV-2 M^PRO by isolated compounds” value (“% Inhibition of SARS-CoV-2 M^PRO” for short) [1] does the source give for `COc1cc(-c2cc(=O)c3c(O)c(OC)c(OC)c(OC)c3o2)cc(OC)c1OC` [Gardenin A] here?
**A.** Its value is 73.80%.

**Q.** And the pIC50 [1, 11]?
**A.** Its pIC50 is 5.22.

**Q.** And the “selectivity index CC50/IC50” value [2]?
**A.** Its value is 2.9.

**Q.** And the IC50 [2, 12]?
**A.** Its IC50 is 83.8 µg/mL (≈ 200 µM).

**Q.** And the CC50 [3]?
**A.** Its CC50 is 246 µg/mL (≈ 589 µM).

**Q.** Which “% Inhibition of SARS-CoV-2 M^PRO” value [1] does the source give for `CCCCC[C@H](O)CC(=O)CCc1ccc(O)c(OC)c1` [6-Gingerol] here?
**A.** The value was 65.2%.

**Q.** What about the pIC50 [1] of the same molecule?
**A.** The pIC50 was 5.03.

**Q.** What about the “selectivity index CC50/IC50” value [2] of the same molecule?
**A.** The value was 2.3.

**Q.** And the IC50 [2, 13]?
**A.** The IC50 was 43.5 µg/mL (≈ 148 µM).

**Q.** What about the pIC50 [4] of the same molecule?
**A.** The pIC50 was under 4.00.

**Q.** What about the CC50 [5] of the same molecule?
**A.** The CC50 was over 100 µM.

**Q.** What about the “absorption after oral administration” value ([6]; detected in blood as glucuronide and sulfate conjugates) of the same molecule?
**A.** Its value is “well-absorbed”.

**Q.** And the “toxicity / tolerability in humans” value ([6]; doses up to 2.0 g daily, only mild gastrointestinal complaints)?
**A.** Its value is “low levels of toxicity and high levels of tolerability”.

**Q.** What about the CC50 [7] of the same molecule?
**A.** The CC50 was 101 µg/mL (≈ 344 µM).

**Q.** With `CC(C)C[C@H](NC(=O)OCc1ccccc1)C(=O)N[C@@H](CC1CCNC1=O)C(O)S(=O)(=O)O` (stereo partly drawn) [GC376] as the molecule, how does the pIC50 [8] read?
**A.** The pIC50 was 7.59.

**Q.** Which “% Inhibition of SARS-CoV-2 M^PRO” value ([1]; FRET assay, isolated compounds) does the source give for `CC1=CC(=O)C(C(C)C)=CC1=O` [Thymoquinone] here?
**A.** Its value is 63.21%.

**Q.** And the pIC50 [1, 11]?
**A.** Its pIC50 is 4.99.

**Q.** And the “selectivity index CC50/IC50” value [2]?
**A.** The value was 1.33.

**Q.** What about the IC50 [2, 13] of the same molecule?
**A.** The IC50 was 6.14 µg/mL (≈ 37.4 µM).

**Q.** What about the clinical safety [9] of the same molecule?
**A.** Its clinical safety is “safe”.

**Q.** And the elimination ([10]; after oral and IV administration)?
**A.** The elimination was “rapid-elimination properties”.

**Q.** And the “absorption following oral administration” value ([10]; oral)?
**A.** The value was “relatively slower absorption”.

**Q.** And the CC50 ([7]; VERO-E6 cells)?
**A.** Its CC50 is 8.2 µg/mL (≈ 49.9 µM).

**Q.** For `CCCCCCCC(=O)CCc1ccc(O)c(OC)c1` [6-Paradol], which “% Inhibition of SARS-CoV-2 M^PRO” value ([1]; FRET assay, isolated compounds) is on record?
**A.** Its value is 71.8%.

**Q.** What about the pIC50 [1, 11] of the same molecule?
**A.** Its pIC50 is 6.77.

**Q.** And the “selectivity index CC50/IC50” value [2]?
**A.** The value was 0.6.

**Q.** And the IC50 [2, 12]?
**A.** The IC50 was 281 µg/mL (≈ 1010 µM).

**Q.** And the CC50 [3]?
**A.** Its CC50 is 155 µg/mL (≈ 557 µM).

**Q.** With `COc1ccc(-c2cc(=O)c3c(O)c(OC)c(OC)c(OC)c3o2)cc1` [Gardenin B] as the molecule, how does the “% Inhibition of SARS-CoV-2 M^PRO” value [1] read?
**A.** Its value is 1.00%.

**Q.** With `CC(C)(C)c1ccc(N(C(=O)c2cnc[nH]2)[C@@H](C(=O)NC2CCCCC2)c2cccnc2)cc1` [X77] as the molecule, how does the pIC50 [8] read?
**A.** Its pIC50 is 5.64.
